{"source": "ChEMBL document CHEMBL1165994", "about": "“Leucoridines A-D, cytotoxic Strychnos-Strychnos bisindole alkaloids from Leuconotis” (J Nat Prod, 2010)", "key": {"[1]": {"assay": "Cytotoxicity against human KB/VJ300 cells after 3 days by MTT assay", "assay_type": "functional, cell-based", "conditions": "KB/VJ300, 72 h"}, "[2]": {"tested_on": "KB", "assay": "Cytotoxicity against human KB cells after 3 days by MTT assay", "assay_type": "functional, cell-based", "conditions": "72 h"}}, "data": [{"compound": "CC[C@@H]1CN2CC[C@@]34C5=C(C[C@]6(CN5c5ccccc53)C3=Nc5ccccc5[C@@]35CCN3C[C@@H](CC)[C@@H]6C[C@H]35)[C@H]1C[C@H]24", "note": "[LEUCORIDINE A]", "values": [{"measurement": "IC50", "setting": "[1]", "result": 2.39, "unit": "µg/mL"}, {"measurement": "IC50", "setting": "[2]", "result": 0.57, "unit": "µg/mL"}]}, {"compound": "CCC1=CN2CC[C@@]34C(=Nc5ccccc53)[C@@]3(CC5=C6N(C3)c3ccccc3[C@@]63CCN6C[C@@H](CC)[C@@H]5C[C@H]63)[C@H]1C[C@H]24", "note": "[LEUCORIDINE B]", "values": [{"measurement": "IC50", "setting": "[1]", "result": 12, "unit": "µg/mL"}, {"measurement": "IC50", "setting": "[2]", "result": 11.6, "unit": "µg/mL"}]}, {"compound": "CC[C@@H]1CN2CC[C@@]34C5=C(C[C@]6(CN5c5ccccc53)C(=O)[C@@]3(c5ccccc5N)CCN5C[C@@H](CC)[C@@H]6C[C@H]53)[C@H]1C[C@H]24", "note": "[LEUCORIDINE C]", "values": [{"measurement": "IC50", "setting": "[1]", "result": 11.8, "unit": "µg/mL"}, {"measurement": "IC50", "setting": "[2]", "result": 10.9, "unit": "µg/mL"}]}, {"compound": "C=C1[C@H]2C[C@@H]3N(CC[C@@]34c3cccc(C[C@@H]5C6=Nc7ccccc7[C@@]67CCN6C[C@@H](CC)[C@@H]5C[C@H]67)c3N[C@@H]14)C[C@H]2CC", "note": "[LEUCORIDINE D]", "values": [{"measurement": "IC50", "setting": "[1]", "result": 13.3, "unit": "µg/mL"}, {"measurement": "IC50", "setting": "[2]", "result": 12.5, "unit": "µg/mL"}]}]}
